Here are results for two compounds from patent publication US20260306421A1, “SYSTEMS AND METHODS FOR TRANSDERMAN PATCH DELIVERY” (VITAMAX PATCH WHOLESALER LLC, priority 2022, published 2026).

Marks after values point to notes of the source that are not given here.

Common to all, as to format: physicochemical
The nature of data set [1]: Solubility of iron chloride hexahydrate and iron complexes (visual / assayed). To be noted: visual (*). A digest of the protocol:
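Visual screen across solvents, then quantitation with excess complex by one of three incubations: 48 h shaking at 37 °C, 2 h sonication at 40 °C, or overnight at 50 °C. Iron in the supernatant after centrifugation was measured by Ferrozine assay.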

Data set [2] is described as follows: Iron complex adhesive compatibility and loading screen.
Data set [3] is described as follows: Iron complex reservoir solvent solubility screening. To be noted: Span 80, SDS, Tween 80 and Kolliphore EL.
Data set [4] in a line: Solubility of cholecalciferol and cholecalciferol phosphate (disodium, acid). To be noted: visual solubility. The procedure: Aliquots of cholecalciferol, cholecalciferol phosphate disodium, and cholecalciferol phosphate acid were added to a range of solvents including propylene glycol (PG), distilled water, methanol, ethyl acetate, ethanol, n-hexane, and the visual solubility was determined. A precise assessment of the saturation solubility was for some of the solvent systems was made using high-performance liquid chromatography (HPLC). In the HPLC solubility studies, an excess of each solute was added into 2 mL of each test solvent. The solutions were left stirring overnight at room temperature, (RT), 22° C. The saturation of the solutions was confirmed by the visual appearance of crystals and the drug suspensions were filtered through 0.2 μm cellulose acetate syringe filters, diluted with excess of mobile phase, and the solute concentration of each sample was assessed using HPLC.

The nature of data set [5]: Cholecalciferol phosphate adhesive suitability / compatibility screen. The protocol:
Pre-formulation studies were performed to determine the compatibility of cholecalciferol phosphate (disodium and acid forms) with a range of adhesives (Table 38) that could be used to manufacture of the patch. The compatibility of the drugs with the patch excipients was assessed through checking the clarity of the mixture.
The compatibility of the adhesive with solvents and drug was established. The maximum drug loading in the adhesive following solvent evaporation was determined by mixing the drug, adhesive and co-solvents until a clear solution is obtained at different drug:adhesive ratios by placing a drop of solution onto patch backing sheet, leaving the slide to dry for 3-4 hours and examining the formed fil on the surface of the backings for evidence of drug crystals were assessed using KKmoon digital magnifier with LED light (China). Following patch optimization, the drug-adhesive solution was cast as 10×10 cm squares using of backing (3M™ Scotchpak™ Polyester Backing Film Laminate 9730). A sufficient volume of the adhesive was applied to achieve a target coating of 8 mg/cm^2. Following complete drying of the solvents, the adhesive layer was covered by M3 Release liner (SCOTCHPAK 9755), compressed, and then cut using 34 mm circular manual die cutter (SCP Super Cutting Press).

The nature of data set [6]: Chemical stability of cholecalciferol phosphate acid in skin permeation solvents. To be noted: 24 h, 37° C. The procedure:
To assess the chemical stability of the cholecalciferol phosphate acid in the solutions employed in the skin permeation experiments a 1 mg/mL solution of cholecalciferol phosphate acid in propylene glycol (PG) was prepared and incubated at 37° C. for 24 hours. In addition 100 μg/mL cholecalciferol phosphate acid in 90:10 methanol:water and in 80:20 PG:water were also incubated at 37° C. for 24 hours. The concentration pre and post incubation was compared to determine the chemical stability during the permeation studies.

As for `Cc1occc(=O)c1[O-].Cc1occc(=O)c1[O-].Cc1occc(=O)c1[O-].[Fe+3]` [Iron maltol made at pH 7.4, iron maltol], the “Solubility of complex (visual)” value is below 20 mg/mg/mL in data set [1] (PEG400), at least 20 mg/mg/mL in data set [1] (PG) and below 20 mg/mg/mL in data set [1] (Transcutul). Moreover, the “Solubility in DURO-TAK 9301 patch” value in data set [2] (drug loading 4%, 2 mg PG) is on record as “Clear”; in data set [2] (drug loading 4%, no permeation enhancer) it was “Clear”; in data set [2] (drug loading 6%, no permeation enhancer), “Precipitated”; in data set [2] (drug loading 7%, 8 mg Maltol), “Precipitated”; in data set [2] (drug loading 7.5%, 4 mg PG) it was “Precipitated”; in data set [2] (drug loading 8%, no permeation enhancer), “Precipitated”. Besides, the “Solubility in DURO-TAK 9301 patch” value was “Precipitated” in data set [2] (drug loading 10%, 5.5 mg PG); “Precipitated” in data set [2] (drug loading 10%, 5.5 mg Transcutol); “Precipitated” in data set [2] (drug loading 10%, no permeation enhancer). Moreover, the visual solubility in data set [3] is on record as at most 32 mg/mL.

`C=C1CCC(OP(=O)(O)O)CC1=CC=C1CCCC2(C)C1CCC2C(C)CCCC(C)C` (stereo not shown) [Cholecalciferol phosphate acid, cholecalciferol phosphate acid]: the Solubility in data set [4] (solvent Ethanol) is ~4* mg/mL; in data set [4] (solvent Ethyl acetate), <0.1* mg/mL; in data set [4] (solvent Hexane) it was ~40* mg/mL; in data set [4] (solvent Methanol (0.1% TFA)), <0.1* mg/mL; in data set [4] (solvent PG), ~10* mg/mL; in data set [5] (DURO-TAK 87-2052 0.268 mL, 10 mg drug, 0.5 mL hexane, 0.4 mL ethyl acetate), “Clear”. Also, the Solubility result in data set [5] (DURO-TAK 87-9301 100 mg, 5 mg drug, 5 mg dodecyl amine, 0.5 mL methanol, 0.25 mL ethyl acetate) was “Clear”; in data set [5] (Duro-TAK 87-2516 100 mg, 10 mg drug, 10 mg dodecyl amine, 0.5 mL methanol, 0.5 mL ethyl acetate), “Clear”; in data set [5] (Duro-TAK 87-2516 100 mg, 10 mg drug, 10 mg dodecyl amine, 1 mL methanol, 1.25 mL ethyl acetate), “Clear”; in data set [5] (Duro-TAK 87-2516 100 mg, 10 mg drug, 10 mg dodecyl amine, 1.5 mL methanol, 1 mL ethyl acetate), “Clear”; in data set [5] (Oppanol B12 1.2 g, 65 mg drug, 15.9 mL hexane), “Clear”; in data set [5] (Oppanol B12 1.2 g, 65 mg drug, 15.9 mL hexane, 65 mg dodecyl amine), “Clear”. In addition, in data set [5] (Oppanol B12 2.3 g, 130 mg drug, 32 mL hexane), the Solubility entry is “Clear”. In addition, the “compatibility with adhesives and organic solvents” value in data set [5] (Oppanol B12, DURO-TAK 87-2516, 87-9301 and 87-2052) is reported as “showed compatibility”. Besides, the “stability in donor, extraction and receiver solvent” value in data set [6] is “appropriate stability”.
